Laboratory results: ChEMBL document CHEMBL5335767, “Synthesis and study of new siderophore analog-ciprofloxacin conjugates with antibiotic activities against Pseudomonas aeruginosa and Burkholderia spp” (Eur J Med Chem, 2023)
Converted amounts (≈) assume the structure as drawn.

Tests used:
[1] = test system: Burkholderia pseudomallei; assay: Antibacterial activity against Burkholderia pseudomallei BPS2020IRBA002 under succinate minimum medium by CLSI protocol based microdilution method; type: functional
Pseudomonas aeruginosa [2] = assay: Antibacterial activity against Pseudomonas aeruginosa PAD07 under muller hinton medium by CLSI protocol based microdilution method; type: functional
Pseudomonas aeruginosa [3] = assay: Antibacterial activity against Pseudomonas aeruginosa PAO1 under 1 uM FeCl3 medium by CLSI protocol based microdilution method; type: functional
[4] = test system: Burkholderia thailandensis; assay: Antibacterial activity against Burkholderia thailandensis E264 under 1 uM FeCl3 medium by CLSI protocol based microdilution method; type: functional
[5] = test system: Burkholderia pseudomallei; assay: Antibacterial activity against Burkholderia pseudomallei K96243 under 1 uM FeCl3 medium by CLSI protocol based microdilution method; type: functional
[6] = test system: Burkholderia thailandensis; assay: Antibacterial activity against Burkholderia thailandensis E264TS32C47 under muller hinton medium by CLSI protocol based microdilution method; type: functional
[7] = test system: Burkholderia thailandensis; assay: Antibacterial activity against Burkholderia thailandensis E264 under succinate minimum medium by CLSI protocol based microdilution method; type: functional
[8] = test system: Burkholderia pseudomallei; assay: Antibacterial activity against Burkholderia pseudomallei K96243 under succinate minimum medium by CLSI protocol based microdilution method; type: functional
Pseudomonas aeruginosa [9] = assay: Antibacterial activity against Pseudomonas aeruginosa AM85 under muller hinton medium by CLSI protocol based microdilution method; type: functional
[10] = test system: Burkholderia thailandensis; assay: Antibacterial activity against Burkholderia thailandensis E264TS32C10 under succinate minimum medium by CLSI protocol based microdilution method; type: functional
[11] = test system: Burkholderia pseudomallei; assay: Antibacterial activity against Burkholderia pseudomallei BPS2020IRBA003 under 1 uM FeCl3 medium by CLSI protocol based microdilution method; type: functional
[12] = test system: Burkholderia pseudomallei; assay: Antibacterial activity against Burkholderia pseudomallei BPS2020IRBA002 under muller hinton medium by CLSI protocol based microdilution method; type: functional
Pseudomonas aeruginosa [13] = assay: Antibacterial activity against Pseudomonas aeruginosa AM85 under succinate minimum medium by CLSI protocol based microdilution method; type: functional
[14] = test system: Burkholderia pseudomallei; assay: Antibacterial activity against Burkholderia pseudomallei BPS2020IRBA004 under muller hinton medium by CLSI protocol based microdilution method; type: functional
[15] = test system: Burkholderia pseudomallei; assay: Antibacterial activity against Burkholderia pseudomallei BPS2020IRBA005 under succinate minimum medium by CLSI protocol based microdilution method; type: functional
[16] = test system: Burkholderia pseudomallei; assay: Antibacterial activity against Burkholderia pseudomallei BPS2020IRBA001 under 1 uM FeCl3 medium by CLSI protocol based microdilution method; type: functional
Pseudomonas aeruginosa [17] = assay: Antibacterial activity against Pseudomonas aeruginosa PAO1 under succinate minimum medium by CLSI protocol based microdilution method; type: functional
[18] = test system: Burkholderia pseudomallei; assay: Antibacterial activity against Burkholderia pseudomallei BPS2020IRBA003 under succinate minimum medium by CLSI protocol based microdilution method; type: functional
Pseudomonas aeruginosa [19] = assay: Antibacterial activity against Pseudomonas aeruginosa PAD07 under 1 uM FeCl3 medium by CLSI protocol based microdilution method; type: functional
[20] = test system: Burkholderia thailandensis; assay: Antibacterial activity against Burkholderia thailandensis E264TS32C47 under 1 uM FeCl3 medium by CLSI protocol based microdilution method; type: functional
Pseudomonas aeruginosa [21] = assay: Antibacterial activity against Pseudomonas aeruginosa AM85 under 1 uM FeCl3 medium by CLSI protocol based microdilution method; type: functional
[22] = test system: Burkholderia pseudomallei; assay: Antibacterial activity against Burkholderia pseudomallei BPS2020IRBA003 under muller hinton medium by CLSI protocol based microdilution method; type: functional
Pseudomonas aeruginosa [23] = assay: Antibacterial activity against Pseudomonas aeruginosa PAO1 under muller hinton medium by CLSI protocol based microdilution method; type: functional
[24] = test system: Burkholderia thailandensis; assay: Antibacterial activity against Burkholderia thailandensis E264TS32C12 under muller hinton medium by CLSI protocol based microdilution method; type: functional
Pseudomonas aeruginosa [25] = assay: Antibacterial activity against Pseudomonas aeruginosa PAD07 under succinate minimum medium by CLSI protocol based microdilution method; type: functional
[26] = test system: Burkholderia pseudomallei; assay: Antibacterial activity against Burkholderia pseudomallei BPS2020IRBA002 under 1 uM FeCl3 medium by CLSI protocol based microdilution method; type: functional
[27] = Antibacterial activity against Burkholderia pseudomallei BPS2020IRBA005 under 1 uM FeCl3 medium by CLSI protocol based microdilution method; type: functional; details: Burkholderia thailandensis
[28] = test system: Burkholderia thailandensis; assay: Antibacterial activity against Burkholderia thailandensis E264TS32C47 under succinate minimum medium by CLSI protocol based microdilution method; type: functional
HepG2 = assay: Cytotoxicity against human HepG2 cells at 28 ug/ml after 48 hrs by CellTiter-Glo luminescent cell viability assay; type: toxicity, cell-based; details: hepg2, 48 h, dose 28 µg/ml
[29] = Stability in aqueous solution assessed as half life; type: physicochemical
[30] = test system: Burkholderia pseudomallei; assay: Antibacterial activity against Burkholderia pseudomallei BPS2020IRBA001 under succinate minimum medium by CLSI protocol based microdilution method; type: functional
[31] = test system: Burkholderia thailandensis; assay: Antibacterial activity against Burkholderia thailandensis E264TS32C10 under muller hinton medium by CLSI protocol based microdilution method; type: functional
[32] = test system: Burkholderia thailandensis; assay: Antibacterial activity against Burkholderia thailandensis E264 under muller hinton medium by CLSI protocol based microdilution method; type: functional
[33] = test system: Burkholderia pseudomallei; assay: Antibacterial activity against Burkholderia pseudomallei K96243 under muller hinton medium by CLSI protocol based microdilution method; type: functional
[34] = test system: Burkholderia pseudomallei; assay: Antibacterial activity against Burkholderia pseudomallei BPS2020IRBA001 under muller hinton medium by CLSI protocol based microdilution method; type: functional
[35] = test system: Burkholderia thailandensis; assay: Antibacterial activity against Burkholderia thailandensis E264TS32C12 under 1 uM FeCl3 medium by CLSI protocol based microdilution method; type: functional
[36] = test system: Burkholderia thailandensis; assay: Antibacterial activity against Burkholderia thailandensis E264TS32C12 under succinate minimum medium by CLSI protocol based microdilution method; type: functional
[37] = test system: Burkholderia thailandensis; assay: Antibacterial activity against Burkholderia thailandensis E264TS32C10 under 1 uM FeCl3 medium by CLSI protocol based microdilution method; type: functional
Lipid bilayer = assay: Binding affinity to bacterial inner membrane mimic PE/PG/CL/PC (60:20:10:10) assessed as maximum insertion pressure
[38] = test system: Burkholderia pseudomallei; assay: Antibacterial activity against Burkholderia pseudomallei BPS2020IRBA005 under muller hinton medium by CLSI protocol based microdilution method; type: functional

Question: For `CC(OC(=O)c1cc(=O)c(O)c[nH]1)OC(=O)N1CCN(c2cc3c(cc2F)c(=O)c(C(=O)O)cn3C2CC2)CC1` (stereo not given), which MIC [1] is on record?
Answer: 16 µg/mL (≈ 28.8 µM)

Question: What about the MIC (Pseudomonas aeruginosa [2]) of the same molecule?
Answer: 0.25 µg/mL (≈ 0.449 µM)

Question: And the MIC (Pseudomonas aeruginosa [3])?
Answer: 2 µg/mL (≈ 3.59 µM)

Question: And the MIC [4]?
Answer: 4 µg/mL (≈ 7.19 µM)

Question: What about the MIC [5] of the same molecule?
Answer: 1 µg/mL (≈ 1.8 µM)

Question: And the MIC [6]?
Answer: 8 µg/mL (≈ 14.4 µM)

Question: What about the MIC [7] of the same molecule?
Answer: 4 µg/mL (≈ 7.19 µM)

Question: And the MIC [8]?
Answer: 1 µg/mL (≈ 1.8 µM)

Question: And the MIC (Pseudomonas aeruginosa [9])?
Answer: 32 µg/mL (≈ 57.5 µM)

Question: And the MIC [10]?
Answer: 32 µg/mL (≈ 57.5 µM)

Question: And the MIC [11]?
Answer: 4 µg/mL (≈ 7.19 µM)

Question: And the MIC [12]?
Answer: 16 µg/mL (≈ 28.8 µM)

Question: And the MIC (Pseudomonas aeruginosa [13])?
Answer: 64 µg/mL (≈ 115 µM)

Question: And the MIC [14]?
Answer: 8 µg/mL (≈ 14.4 µM)

Question: What about the MIC [15] of the same molecule?
Answer: 1 µg/mL (≈ 1.8 µM)

Question: What about the MIC [16] of the same molecule?
Answer: 32 µg/mL (≈ 57.5 µM)

Question: And the MIC (Pseudomonas aeruginosa [17])?
Answer: 2 µg/mL (≈ 3.59 µM)

Question: And the MIC [18]?
Answer: 2 µg/mL (≈ 3.59 µM)

Question: What about the MIC (Pseudomonas aeruginosa [19]) of the same molecule?
Answer: 0.25 µg/mL (≈ 0.449 µM)

Question: What about the MIC [20] of the same molecule?
Answer: 4 µg/mL (≈ 7.19 µM)

Question: And the MIC (Pseudomonas aeruginosa [21])?
Answer: 64 µg/mL (≈ 115 µM)

Question: What about the MIC [22] of the same molecule?
Answer: 2 µg/mL (≈ 3.59 µM)

Question: And the MIC (Pseudomonas aeruginosa [23])?
Answer: 1 µg/mL (≈ 1.8 µM)

Question: What about the MIC [24] of the same molecule?
Answer: 16 µg/mL (≈ 28.8 µM)

Question: And the MIC (Pseudomonas aeruginosa [25])?
Answer: 0.25 µg/mL (≈ 0.449 µM)

Question: What about the MIC [26] of the same molecule?
Answer: 16 µg/mL (≈ 28.8 µM)

Question: What about the MIC [27] of the same molecule?
Answer: 2 µg/mL (≈ 3.59 µM)

Question: And the MIC [28]?
Answer: 8 µg/mL (≈ 14.4 µM)

Question: And the Activity (HepG2)?
Answer: Non-Toxic

Question: And the half-life [29]?
Answer: 168 h

Question: What about the MIC [30] of the same molecule?
Answer: 32 µg/mL (≈ 57.5 µM)

Question: What about the MIC [31] of the same molecule?
Answer: 128 µg/mL (≈ 230 µM)

Question: What about the MIC [32] of the same molecule?
Answer: 4 µg/mL (≈ 7.19 µM)

Question: What about the MIC [33] of the same molecule?
Answer: 1 µg/mL (≈ 1.8 µM)

Question: And the MIC [34]?
Answer: 32 µg/mL (≈ 57.5 µM)

Question: What about the MIC [35] of the same molecule?
Answer: 8 µg/mL (≈ 14.4 µM)

Question: What about the MIC [36] of the same molecule?
Answer: 16 µg/mL (≈ 28.8 µM)

Question: What about the MIC [37] of the same molecule?
Answer: 32 µg/mL (≈ 57.5 µM)

Question: And the Activity (Lipid bilayer)?
Answer: 29.5 mN/meter

Question: What about the MIC [38] of the same molecule?
Answer: 16 µg/mL (≈ 28.8 µM)
